Source: patent US10633350B2, “Diphenyl derivatives and uses thereof” (NOVARTIS AG, priority 2017, dated 2020)
Where two headings read alike, the source gives them in different places.

How the values were obtained:
Akt = Akt activation assay (Phospho-AKT (Ser473) antibody staining) in U2OS GFP-FoxO3a H212R reporter cells; type: cell-based; conditions: serum starved overnight, 30 minutes compound treatment, total cellular intensity of Phospho-Akt (Ser473) antibody staining, AC50 = concentration that results in 50% activation or inhibition
Outline: (§1)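 Serum-starved (overnight) cells treated with compounds at various doses for 30 min, then fixed in 4% paraformaldehyde and stained overnight at 4 °C for pAkt S473 with Hoechst nuclear counterstain; high-content imaging. FoxO3a readout: nuclear/cytosolic GFP ratio (%); Akt readout: total cellular pAkt intensity (%); DMSO = 0% activity.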

FoxO3a = FoxO3a inhibition assay (GFP-FoxO3a nuclear to cytoplasmic translocation) in U2OS GFP-FoxO3a H212R reporter cells; type: cell-based; conditions: serum starved overnight, 30 minutes compound treatment, ratio of nuclear to cytosolic GFP intensity, AC50 = concentration that results in 50% activation or inhibition, read-out: FoxO AC50
Outline: as §1

| Compound | AC50 (Akt; Homo sapiens, 0.5 h) [nM] | AC50 (FoxO3a; Homo sapiens, 0.5 h) [nM] | AC50 (Akt) [nM] | AC50 (FoxO3a) [nM] |
| --- | --- | --- | --- | --- |
| Cc1cc(C(N)=O)nn1-c1ccc(Cc2ccc(-c3cncc(CN(C)C)c3)cc2)cc1 [Example 5-6, 1-(4-(4-(5-((dimethylamino)methyl)pyridin-3-yl)benzyl)phenyl)-5-methyl-1H-pyrazole-3-carboxamide] | 1040 | 312 |  |  |
| Cc1cc(C(N)=O)nn1-c1ccc(C(C)(C)c2ccc(C3=CCC(O)CC3)cc2)cc1 (centres unmarked) [Example 9, 1-(4-(2-(4′-hydroxy-2′,3′,4′,5′-tetrahydro-[1,1′-biphenyl]-4-yl)propan-2-yl)phenyl)-5-methyl-1H-pyrazole-3-carboxamide] | 532 | 253 |  |  |
| Cc1nc(C(N)=O)nn1-c1ccc(Cc2ccc(N3CCC(C(C)(C)O)CC3)cc2)cc1 [Example 49, 1-(4-(4-(4-(2-hydroxypropan-2-yl)piperidin-1-yl)benzyl)phenyl)-5-methyl-1H-1,2,4-triazole-3-carboxamide] | 840 | 273 |  |  |
| Cc1cc(C(N)=O)nn1-c1ccc(Cc2ccc(-c3ccc(S(=O)(=O)CCO)cc3)cc2)cc1 [Example 17, 1-(4-((4′-((2-hydroxyethyl)sulfonyl)-[1,1′-biphenyl]-4-yl)methyl)phenyl)-5-methyl-1H-pyrazole-3-carboxamide] | 101 | 29 |  |  |
| Cc1cc(C(N)=O)nn1-c1ccc(Cc2ccc(-c3ccc(CN4CCC[C@H]4CO)cc3)cc2)cc1 [Example 16-1, (S)-1-(4-((4′-((2-(hydroxymethyl)pyrrolidin-1-yl)methyl)-[1,1′-biphenyl]-4-yl)methyl)phenyl)-5-methyl-1H-pyrazole-3-carboxamide] | 90 | 33 |  |  |
| Cc1cc(C(N)=O)nn1-c1ccc(C(C)(C)c2ccc(-c3ccncc3)cc2)cc1 [Example 6-3, 5-methyl-1-(4-(2-(4-(pyridin-4-yl)phenyl)propan-2-yl)phenyl)-1H-pyrazole-3-carboxamide] | 432 | 149 |  |  |
| Cc1cc(C(N)=O)nn1-c1ccc(Cc2ccc(-c3ccc(CN4CCC(N(C)C)CC4)cc3)cc2)cc1 [Example 40, 1-(4-((4′-((4-(dimethylamino)piperidin-1-yl)methyl)-[1,1′-biphenyl]-4-yl)methyl)phenyl)-5-methyl-1H-pyrazole-3-carboxamide] | 146 | 32 |  |  |
| Cc1nc(C(N)=O)nn1-c1ccc(Cc2ccc(-c3ccc(CN4CCC(C)(O)CC4)cc3)cc2)cc1 [Example 39-6] | 5 | 9 |  |  |
| Cc1nnc(-c2cccc(-c3ccc(C(C)(C)c4ccc(-n5nc(C(N)=O)nc5C)cc4)cc3)c2)o1 [Example 13-13] | 506 | 179 |  |  |
| Cc1nc(C(N)=O)nn1-c1ccc(C(C)(C)c2ccc(-c3ccc4scnc4c3)cc2)cc1 [Example 13-7] | 504 | 159 |  |  |
| Cc1cc(C(N)=O)nn1-c1ccc(Cc2ccc(-c3ccc(CN4CCC4)cc3)cc2)cc1 [Example 16-8] | 300 | 117 |  |  |
| Cc1cc(C(N)=O)nn1-c1ccc(Cc2ccc(-c3ccc(CN4CC(F)(F)C[C@@H]4CO)cc3)cc2)cc1 [Example 18, (R)-1-(4-((4′-((4,4-difluoro-2-(hydroxymethyl)pyrrolidin-1-yl)methyl)-[1,1′-biphenyl]-4-yl)methyl)phenyl)-5-methyl-1H-pyrazole-3-carboxamide] | 394 | 95 |  |  |
| Cc1nc(C(N)=O)nn1-c1ccc(Cc2ccc(-c3ccc(C(C)(C)O)cn3)cc2)cc1 [Example 21, 1-(4-(4-(5-(2-hydroxypropan-2-yl)pyridin-2-yl)benzyl)phenyl)-5-methyl-1H-1,2,4-triazole-3-carboxamide] | 723 | 155 |  |  |
| Cc1nc(C(N)=O)nn1-c1ccc(Cc2ccc(-c3ccc(CN4CCN(C)CC4)cc3)cc2)cc1 [Example 15-1, 5-methyl-1-(4-((4′-((4-methylpiperazin-1-yl)methyl)-[1,1′-biphenyl]-4-yl)methyl)phenyl)-1H-1,2,4-triazole-3-carboxamide] | 166 | 69 |  |  |
| Cc1cc(C(N)=O)nn1-c1ccc(Cc2ccc(C3CCN(C)C3)cc2)cc1 (single isomer, unassigned) [Example 5-2, 5-methyl-1-(4-(4-(1-methylpyrrolidin-3-yl)benzyl)phenyl)-1H-pyrazole-3-carboxamide] |  |  | 2500 | 792 |
| Cc1cc(C(N)=O)nn1-c1ccc(Cc2ccc(-c3ccc(CN4CCCC4)cc3)cc2)cc1 [Example 3-1, 5-methyl-1-(4-((4′-(pyrrolidin-1-ylmethyl)-[1,1′-biphenyl]-4-yl)methyl)phenyl)-1H-pyrazole-3-carboxamide] | 135 | 36 |  |  |
| Cc1cc(C(N)=O)nn1-c1ccc(Cc2ccc(-c3ccc(C(=O)NC4CNC4)cc3)cc2)cc1 [Example 30, 1-(4-((4′-(azetidin-3-ylcarbamoyl)-[1,1′-biphenyl]-4-yl)methyl)phenyl)-5-methyl-1H-pyrazole-3-carboxamide] | 802 | 237 |  |  |
| Cc1nnc(-c2ccc(-c3ccc(Cc4ccc(-n5nc(C(N)=O)cc5C)cc4)cc3)cc2)o1 [Example 3-9, 5-methyl-1-(4-((4′-(5-methyl-1,3,4-oxadiazol-2-yl)-[1,1′-biphenyl]-4-yl)methyl)phenyl)-1H-pyrazole-3-carboxamide] | 63 | 29 |  |  |
| Cc1nc(C(N)=O)nn1-c1ccc(Cc2ccc(-c3ccc(CN4CCNCC4)cc3)cc2)cc1 [Example 45, 5-methyl-1-(4-((4′-(piperazin-1-ylmethyl)-[1,1′-biphenyl]-4-yl)methyl)phenyl)-1H-1,2,4-triazole-3-carboxamide] | 3 | 130 |  |  |
